From patent US10294248B2, “Beta-lactamase inhibitors” (VenatoRx Pharmaceuticals, Inc., priority 2013, dated 2019)
pIC50: −log10 of the molar value.

How the values were obtained:
[1] = molecular target: T1, SHV-5 β-lactamase (Class A ESBL) (Klebsiella pneumoniae, UniProt P0A3M1); assay: β-Lactamase inhibition, SHV-5; assay type: biochemical
T1 construct: made in house; host or cells: E. coli BL21(DE3)
In short: (§1)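 IC50 is the inhibitor level cutting initial substrate hydrolysis rate by 50% relative to no-inhibitor controls, after 15 min enzyme–inhibitor preincubation at 37 °C. KPC-2 read with imipenem at 300 nm, SHV-5 with cefotaxime at 260 nm; enzymes were untagged, E. coli-expressed, chromatographically purified.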

[2] = system: E. coli ESBL4 expressing CTX-M-15; assay: Broth microdilution MIC, E. coli ESBL4 CTX-M-15; assay type: cell-based; conditions: fixed 4 μg/mL ceftazidime; CAMHB, 16-20 hours at 37° C.
In short: (§2)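 CAMHB, CLSI broth microdilution; strains pre-grown 3-5 h. Compound 32–0.25 μg/ml (2-fold series) + fixed β-lactam 4 μg/ml overlay. 37° C, 16-20 h; MIC scored by eye.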

[3] = system: K. pneumoniae A-1797 expressing KPC-2 and VIM-4; assay: Broth microdilution MIC, K. pneumoniae A-1797 KPC-2/VIM-4; assay type: cell-based; conditions: fixed 4 μg/mL meropenem; CAMHB, 16-20 hours at 37° C.
In short: as §2

[4] = system: S. aureus MSSA-7 producing penicillinase PC-1; assay: Broth microdilution MIC, S. aureus MSSA-7 PC-1; assay type: cell-based; conditions: fixed 4 μg/mL piperacillin; CAMHB, 16-20 hours at 37° C.
In short: as §2

[5] = system: E. cloacae 144200 expressing Class C P99 AmpC; assay: Broth microdilution MIC, E. cloacae 144200 p99 AmpC; assay type: cell-based; conditions: fixed 4 μg/mL ceftazidime; CAMHB, 16-20 hours at 37° C.
In short: as §2

[6] = molecular target: T2, OXA-1 β-lactamase (Class D oxacillinase) (Escherichia coli, UniProt P13661); assay: β-Lactamase inhibition, OXA-1; assay type: biochemical; conditions: nitrocefin 100 μM, 486 nm; 15 min preincubation at 37° C., PBS pH 7.4
T2 construct: made in house; host or cells: E. coli BL21(DE3)
T2 sequence (P13661 26-276): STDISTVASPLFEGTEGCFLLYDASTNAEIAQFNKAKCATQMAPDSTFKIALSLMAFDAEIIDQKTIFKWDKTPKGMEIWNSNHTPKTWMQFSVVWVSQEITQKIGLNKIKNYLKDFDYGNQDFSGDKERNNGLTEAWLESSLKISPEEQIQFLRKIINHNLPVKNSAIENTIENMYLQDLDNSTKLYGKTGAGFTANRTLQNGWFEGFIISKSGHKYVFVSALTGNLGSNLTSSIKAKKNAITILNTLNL
In short: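 Compounds are mixed with purified, untagged recombinant β-lactamase and held 15 min at 37 °C. Substrate is then added: nitrocefin (100 μM final) for OXA-1, imipenem for KPC-2, cefotaxime for SHV-5. Absorbance is followed immediately, and percent inhibition per concentration gives the IC50.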

[7] = molecular target: T3, KPC-2 β-lactamase (Class A carbapenemase) (Klebsiella pneumoniae, UniProt Q9F663); assay: β-Lactamase inhibition, KPC-2; assay type: biochemical; conditions: imipenem substrate, 300 nm; 15 min preincubation at 37° C., PBS pH 7.4
T3 construct: made in house; host or cells: E. coli BL21(DE3)
T3 sequence (Q9F663 25-293, looked up): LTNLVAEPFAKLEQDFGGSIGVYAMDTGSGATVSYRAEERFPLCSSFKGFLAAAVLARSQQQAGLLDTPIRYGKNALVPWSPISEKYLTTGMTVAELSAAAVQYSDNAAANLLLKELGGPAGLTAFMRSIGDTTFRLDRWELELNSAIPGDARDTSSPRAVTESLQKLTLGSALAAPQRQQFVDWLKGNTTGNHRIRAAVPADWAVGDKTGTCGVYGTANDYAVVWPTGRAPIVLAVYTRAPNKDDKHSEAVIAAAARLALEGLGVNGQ
In short: as §1

[8] = system: K. pneumoniae 156319 expressing KPC-3; assay: Broth microdilution MIC, K. pneumoniae 156319 KPC-3; assay type: cell-based; conditions: fixed 4 μg/mL meropenem; CAMHB, 16-20 hours at 37° C.
In short: as §2

[9] = system: P. aeruginosa Ps296 expressing VIM-2; assay: Broth microdilution MIC, P. aeruginosa Ps296 VIM-2; assay type: cell-based; conditions: fixed 4 μg/mL meropenem; CAMHB, 16-20 hours at 37° C.
In short: as §2

[10] = molecular target: T4, p99 AmpC β-lactamase (Class C) (Enterobacter cloacae, UniProt P05364); assay: β-Lactamase inhibition, p99 AmpC; assay type: biochemical
T4 construct: made in house; host or cells: E. coli BL21(DE3)
T4 sequence (P05364 21-381): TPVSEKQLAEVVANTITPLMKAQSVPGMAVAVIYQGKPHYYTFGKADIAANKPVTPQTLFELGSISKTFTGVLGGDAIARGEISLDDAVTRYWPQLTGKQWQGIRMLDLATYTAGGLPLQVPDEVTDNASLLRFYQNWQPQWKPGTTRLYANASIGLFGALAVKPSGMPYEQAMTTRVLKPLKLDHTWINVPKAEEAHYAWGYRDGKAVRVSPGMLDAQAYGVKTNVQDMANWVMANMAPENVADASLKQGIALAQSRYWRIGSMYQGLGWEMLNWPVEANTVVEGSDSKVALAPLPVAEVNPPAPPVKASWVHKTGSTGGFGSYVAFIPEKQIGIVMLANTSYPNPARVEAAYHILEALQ

[11] = molecular target: T5, VIM-2 metallo-β-lactamase (Class B) (Pseudomonas aeruginosa, UniProt Q9K2N0); assay: β-Lactamase inhibition, VIM-2; assay type: biochemical; conditions: nitrocefin 100 μM, 486 nm; 15 min preincubation at 37° C., PBS pH 7.4
T5 construct: made in house; host or cells: E. coli BL21(DE3)
In short: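 Enzyme + inhibitor, 37 °C, 15 min; nitrocefin 100 μM final; A486 read for 10 min. % inhibition vs no-inhibitor wells per concentration; IC50 = concentration halving initial hydrolysis rate.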

T1 sequence (P0A3M1 22-286): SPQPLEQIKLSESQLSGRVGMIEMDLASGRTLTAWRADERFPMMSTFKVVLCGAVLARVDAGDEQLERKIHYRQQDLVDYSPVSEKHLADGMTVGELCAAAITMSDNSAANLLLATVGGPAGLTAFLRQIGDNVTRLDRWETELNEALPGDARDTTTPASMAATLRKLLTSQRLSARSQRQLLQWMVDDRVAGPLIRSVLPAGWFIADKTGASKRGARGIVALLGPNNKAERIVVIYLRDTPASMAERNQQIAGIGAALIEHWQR

SMILES | pIC50 [1] | MIC of example compound in presence of fixed β-lactam: Fixed CAZ, E. coli ESBL4 CTX-M-15 [2] | MIC of example compound in presence of fixed β-lactam: Fixed Mero, K. P. A-1797 KPC-2 VIM-4 [3] | MIC of example compound in presence of fixed β-lactam: Fixed Pip, S. aureus MSSA-7 PC-1 [4] | MIC of example compound in presence of fixed β-lactam: Fixed CAZ, E. cl. 144200 p99 AmpC [5] | pIC50 [6] | pIC50 [7] | MIC of example compound in presence of fixed β-lactam: Fixed Mero, K. P. 156319 KPC-3 [8] | MIC of example compound in presence of fixed β-lactam: Fixed Mero, P. aerug. Ps296 VIM-2 [9] | pIC50 [10] | pIC50 [11]
NC1CCN(CC(=O)N[C@H]2Cc3cccc(C(=O)O)c3OB2O)CC1O (stereo partly drawn) [Example 24, 3-[2-(4-Amino-3-hydroxy-piperidin-1-yl)-acetylamino]-2-hydroxy-3,4-dihydro-2H-benzo[e][1,2]oxaborinine-8-carboxylic acid] | 6.00 to 7.00 | C (the MIC in the presence of <4 μg/mL of a β-lactamase inhibitor) | B (the MIC in the presence of between 8 and 32 μg/mL of a β-lactamase inhibitor) | C (the MIC in the presence of <4 μg/mL of a β-lactamase inhibitor) | C (the MIC in the presence of <4 μg/mL of a β-lactamase inhibitor) | 6.00 to 7.00 | 6.00 to 7.00 | B (the MIC in the presence of between 8 and 32 μg/mL of a β-lactamase inhibitor) | B (the MIC in the presence of between 8 and 32 μg/mL of a β-lactamase inhibitor) | > 7.00 | 4.00 to 5.00
O=C(O)CN1CCN(CC(=O)N[C@H]2Cc3cccc(C(=O)O)c3OB2O)CC1 [Example 25, 3-[2-(4-Carboxymethyl-piperazin-1-yl)-acetylamino]-2-hydroxy-3,4-dihydro-2H-benzo[e][1,2]oxaborinine-8-carboxylic acid] | > 7.00 | C (the MIC in the presence of <4 μg/mL of a β-lactamase inhibitor) | B (the MIC in the presence of between 8 and 32 μg/mL of a β-lactamase inhibitor) | C (the MIC in the presence of <4 μg/mL of a β-lactamase inhibitor) | C (the MIC in the presence of <4 μg/mL of a β-lactamase inhibitor) | > 7.00 | 6.00 to 7.00 | B (the MIC in the presence of between 8 and 32 μg/mL of a β-lactamase inhibitor) | B (the MIC in the presence of between 8 and 32 μg/mL of a β-lactamase inhibitor) | > 7.00 | 4.00 to 5.00
NC1CN(CC(=O)N[C@H]2Cc3cccc(C(=O)O)c3OB2O)CCC1O (stereo partly drawn) [Example 26, 3-[2-(3-Amino-4-hydroxy-piperidin-1-yl)-acetylamino]-2-hydroxy-3,4-dihydro-2H-benzo[e][1,2]oxaborinine-8-carboxylic acid] | 6.00 to 7.00 | C (the MIC in the presence of <4 μg/mL of a β-lactamase inhibitor) | C (the MIC in the presence of <4 μg/mL of a β-lactamase inhibitor) | A (an MIC of the fixed β-lactam antibiotic in the presence of >32 μg/mL of a β-lactamase inhibitor) | C (the MIC in the presence of <4 μg/mL of a β-lactamase inhibitor) | 6.00 to 7.00 | 6.00 to 7.00 | C (the MIC in the presence of <4 μg/mL of a β-lactamase inhibitor) | C (the MIC in the presence of <4 μg/mL of a β-lactamase inhibitor) | > 7.00 | 4.00 to 5.00
